Columns and labels:
guineagrass = assay: Test D guineagrass; type: in vivo, Panicum maximum; details: Postemergence, 0 to 100 scale
Green foxtail [1] = assay: Test D green foxtail; type: in vivo; details: Postemergence, 0 to 100 scale, 0 no injury, 100 complete control
Green foxtail [2] = assay: Test D green foxtail; type: in vivo; details: Postemergence, 0 to 100 scale, 0 no injury, 100 complete control; remark: listed apart in the source
tall mallow = assay: Test D tall mallow; type: in vivo, Malva sylvestris; details: Postemergence, 0 to 100 scale
sandbur = assay: Test D sandbur; type: in vivo, Cenchrus echinatus; details: Postemergence, 0 to 100 scale
dallisgrass = assay: Test D dallisgrass; type: in vivo, Paspalum dilatatum; details: Postemergence, 0 to 100 scale
purple nutsedge = assay: Test D purple nutsedge; type: in vivo, Cyperus rotundus; details: Postemergence, 0 to 100 scale
Green foxtail [3] = assay: Test D green foxtail; type: in vivo; details: Rate 250 g/ha; Postemergence; 0 to 100 scale
bermuda-grass = assay: Test D bermudagrass; type: in vivo, Cynodon dactylon; details: Postemergence, 0 to 100 scale
itchgrass = assay: Test D itchgrass; type: in vivo, Rottboellia exaltata; details: Postemergence, 0 to 100 scale
Spanishneedles = assay: Test D Spanishneedles; type: in vivo, Bidens bipinnata; details: Postemergence, 0 to 100 scale
[4] = Rate 16 g/ha, 0 no injury, 100 complete control
[5] = Rate 32 g/ha, 0 no injury, 100 complete control
[6] = Rate 64 g/ha, 0 no injury, 100 complete control
[7] = Rate 125 g/ha, 0 no injury, 100 complete control

CC(C)N(C(=O)n1oc(=O)n(C2CC2)c1=O)c1ccc(Cl)cc1 [Compound 241]
Plant response rating, Guineagrass (guineagrass; [4]): 0
Plant response rating, Guineagrass (guineagrass; [5]): 0
Guineagrass plant response rating (guineagrass; [6]): 100
Plant response rating, Guineagrass (guineagrass; [6]): 80
Plant response rating, Guineagrass (guineagrass; [7]): 100
Plant response rating, Guineagrass (guineagrass; Rate 250 g/ha): 100
Green foxtail plant response rating (Green foxtail [1]; Rate 64 g/ha): 10
Green foxtail plant response rating (Green foxtail [1]; Rate 125 g/ha): 100
Plant response rating, Green foxtail (Green foxtail [2]; Rate 16 g/ha): 0
Plant response rating, Green foxtail (Green foxtail [2]; Rate 32 g/ha): 10
Plant response rating, Tall Mallow (tall mallow; [4]): 0
Plant response rating, Tall Mallow (tall mallow; [5]): 0
Tall Mallow plant response rating (tall mallow; [6]): 0
Tall Mallow plant response rating (tall mallow; [7]): 10
Plant response rating, Tall Mallow (tall mallow; Rate 250 g/ha): 40
Plant response rating, Sandbur (sandbur; [4]): 0
Plant response rating, Sandbur (sandbur; [5]): 40
Sandbur plant response rating (sandbur; [6]): 20
Sandbur plant response rating (sandbur; [7]): 100
Plant response rating, Sandbur (sandbur; Rate 250 g/ha): 90
Plant response rating, Dallisgrass (dallisgrass; [4]): 0
Plant response rating, Dallisgrass (dallisgrass; [5]): 40
Plant response rating, Dallisgrass (dallisgrass; [6]): 50
Plant response rating, Dallisgrass (dallisgrass; [7]): 90
Plant response rating, Dallisgrass (dallisgrass; Rate 250 g/ha): 100
Plant response rating, Purple nutsedge (purple nutsedge; [4]): 0
Plant response rating, Purple nutsedge (purple nutsedge; [5]): 0
Purple nutsedge plant response rating (purple nutsedge; [6]): 0
Purple nutsedge plant response rating (purple nutsedge; [7]): 0
Plant response rating, Purple nutsedge (purple nutsedge; Rate 250 g/ha): 0
Plant response rating, Green foxtail (Green foxtail [3]): 100
Plant response rating, Bermudagrass (bermuda-grass; [4]): 0
Plant response rating, Bermudagrass (bermuda-grass; [5]): 30
Plant response rating, Bermudagrass (bermuda-grass; [6]): 100
Plant response rating, Bermudagrass (bermuda-grass; [7]): 100
Plant response rating, Bermudagrass (bermuda-grass; Rate 250 g/ha): 100
Plant response rating, Itchgrass (itchgrass; [4]): 0
Plant response rating, Itchgrass (itchgrass; [5]): 0
Plant response rating, Itchgrass (itchgrass; [6]): 0
Plant response rating, Itchgrass (itchgrass; [7]): 100
Plant response rating, Itchgrass (itchgrass; Rate 250 g/ha): 100
Plant response rating, Spanishneedles (Spanishneedles; [4]): 0
Plant response rating, Spanishneedles (Spanishneedles; [5]): 0
Spanishneedles plant response rating (Spanishneedles; [6]): 0
Spanishneedles plant response rating (Spanishneedles; [7]): 0
Plant response rating, Spanishneedles (Spanishneedles; Rate 250 g/ha): 10

CC(C)N(C(=O)n1oc(=O)n(C2CCC2)c1=O)c1ccccc1 [Compound 348]
Plant response rating, Guineagrass (guineagrass; [4]): 0
Plant response rating, Guineagrass (guineagrass; [5]): 0
Plant response rating, Guineagrass (guineagrass; [6]): 0
Plant response rating, Guineagrass (guineagrass; [7]): 100
Plant response rating, Guineagrass (guineagrass; Rate 250 g/ha): 80
Green foxtail plant response rating (Green foxtail [1]; Rate 64 g/ha): 100
Green foxtail plant response rating (Green foxtail [1]; Rate 125 g/ha): 100
Plant response rating, Green foxtail (Green foxtail [2]; Rate 16 g/ha): 0
Plant response rating, Green foxtail (Green foxtail [2]; Rate 32 g/ha): 20
Plant response rating, Tall Mallow (tall mallow; [4]): 0
Plant response rating, Tall Mallow (tall mallow; [5]): 0
Tall Mallow plant response rating (tall mallow; [6]): 0
Tall Mallow plant response rating (tall mallow; [7]): 20
Plant response rating, Tall Mallow (tall mallow; Rate 250 g/ha): 40
Plant response rating, Sandbur (sandbur; [4]): 0
Plant response rating, Sandbur (sandbur; [5]): 0
Sandbur plant response rating (sandbur; [6]): 20
Sandbur plant response rating (sandbur; [7]): 60
Plant response rating, Sandbur (sandbur; Rate 250 g/ha): 100
Plant response rating, Dallisgrass (dallisgrass; [4]): 0
Plant response rating, Dallisgrass (dallisgrass; [5]): 50
Plant response rating, Dallisgrass (dallisgrass; [6]): 90
Plant response rating, Dallisgrass (dallisgrass; [7]): 100
Plant response rating, Dallisgrass (dallisgrass; Rate 250 g/ha): 100
Plant response rating, Purple nutsedge (purple nutsedge; [4]): 0
Plant response rating, Purple nutsedge (purple nutsedge; [5]): 0
Purple nutsedge plant response rating (purple nutsedge; [6]): 0
Purple nutsedge plant response rating (purple nutsedge; [7]): 0
Plant response rating, Purple nutsedge (purple nutsedge; Rate 250 g/ha): 0
Plant response rating, Green foxtail (Green foxtail [3]): 100
Plant response rating, Bermudagrass (bermuda-grass; [4]): 0
Plant response rating, Bermudagrass (bermuda-grass; [5]): 20
Plant response rating, Bermudagrass (bermuda-grass; [6]): 100
Plant response rating, Bermudagrass (bermuda-grass; [7]): 100
Plant response rating, Bermudagrass (bermuda-grass; Rate 250 g/ha): 100
Plant response rating, Itchgrass (itchgrass; [4]): 0
Plant response rating, Itchgrass (itchgrass; [5]): 0
Plant response rating, Itchgrass (itchgrass; [6]): 0
Plant response rating, Itchgrass (itchgrass; [7]): 0
Plant response rating, Itchgrass (itchgrass; Rate 250 g/ha): 100
Plant response rating, Spanishneedles (Spanishneedles; [4]): 0
Plant response rating, Spanishneedles (Spanishneedles; [5]): 0
Spanishneedles plant response rating (Spanishneedles; [6]): 0
Spanishneedles plant response rating (Spanishneedles; [7]): 0
Plant response rating, Spanishneedles (Spanishneedles; Rate 250 g/ha): 0

CC(C)N(C(=O)n1oc(=O)n(C2CCC2)c1=O)c1ccc(Cl)cc1 [Compound 349]
Plant response rating, Guineagrass (guineagrass; [4]): 0
Plant response rating, Guineagrass (guineagrass; [5]): 0
Guineagrass plant response rating (guineagrass; [6]): 0
Plant response rating, Guineagrass (guineagrass; [6]): 20
Plant response rating, Guineagrass (guineagrass; [7]): 0
Plant response rating, Guineagrass (guineagrass; Rate 250 g/ha): 40
Green foxtail plant response rating (Green foxtail [1]; Rate 64 g/ha): 10
Green foxtail plant response rating (Green foxtail [1]; Rate 125 g/ha): 80
Plant response rating, Green foxtail (Green foxtail [2]; Rate 16 g/ha): 0
Plant response rating, Green foxtail (Green foxtail [2]; Rate 32 g/ha): 0
Plant response rating, Tall Mallow (tall mallow; [4]): 0
Plant response rating, Tall Mallow (tall mallow; [5]): 0
Tall Mallow plant response rating (tall mallow; [6]): 0
Tall Mallow plant response rating (tall mallow; [7]): 0
Plant response rating, Tall Mallow (tall mallow; Rate 250 g/ha): 0
Plant response rating, Sandbur (sandbur; [4]): 0
Plant response rating, Sandbur (sandbur; [5]): 0
Sandbur plant response rating (sandbur; [6]): 0
Sandbur plant response rating (sandbur; [7]): 20
Plant response rating, Sandbur (sandbur; Rate 250 g/ha): 80
Plant response rating, Dallisgrass (dallisgrass; [4]): 0
Plant response rating, Dallisgrass (dallisgrass; [5]): 0
Plant response rating, Dallisgrass (dallisgrass; [6]): 0
Plant response rating, Dallisgrass (dallisgrass; [7]): 60
Plant response rating, Dallisgrass (dallisgrass; Rate 250 g/ha): 90
Plant response rating, Purple nutsedge (purple nutsedge; [4]): 0
Plant response rating, Purple nutsedge (purple nutsedge; [5]): 0
Purple nutsedge plant response rating (purple nutsedge; [6]): 0
Purple nutsedge plant response rating (purple nutsedge; [7]): 0
Plant response rating, Purple nutsedge (purple nutsedge; Rate 250 g/ha): 0
Plant response rating, Green foxtail (Green foxtail [3]): 100
Plant response rating, Bermudagrass (bermuda-grass; [4]): 0
Plant response rating, Bermudagrass (bermuda-grass; [5]): 40
Plant response rating, Bermudagrass (bermuda-grass; [6]): 70
Plant response rating, Bermudagrass (bermuda-grass; [7]): 100
Plant response rating, Bermudagrass (bermuda-grass; Rate 250 g/ha): 100
Plant response rating, Itchgrass (itchgrass; [4]): 0
Plant response rating, Itchgrass (itchgrass; [5]): 0
Plant response rating, Itchgrass (itchgrass; [6]): 0
Plant response rating, Itchgrass (itchgrass; [7]): 0
Plant response rating, Itchgrass (itchgrass; Rate 250 g/ha): 0
Plant response rating, Spanishneedles (Spanishneedles; [4]): 0
Plant response rating, Spanishneedles (Spanishneedles; [5]): 0
Spanishneedles plant response rating (Spanishneedles; [6]): 0
Spanishneedles plant response rating (Spanishneedles; [7]): 0
Plant response rating, Spanishneedles (Spanishneedles; Rate 250 g/ha): 0

— patent US6737383B1, “Herbicidal oxadiazolidines” (priority 1999, dated 2004)
